The values that follow are results of earlier work, collected in patent publication US7128928B2, “Ophthalmic formulation with novel gum composition” (Pharmacia Corporation, priority 2002, dated 2006).

This data set has as its system infective gram-positive bacteria.

Regarding `CC(=O)NC[C@H]1CN(c2ccc(N3CCOCC3)c(F)c2)C(=O)O1` [linezolid], the MIC90 result was “about 4 μg/ml”.
